Source: BindingDB's records for doi:10.1016/j.bmcl.2016.06.076 (Leiden University, 2016)

Target: T1, Diacylglycerol lipase-alpha (Homo sapiens, UniProt Q9Y4D2)
T1 sequence (Q9Y4D2 whole entry): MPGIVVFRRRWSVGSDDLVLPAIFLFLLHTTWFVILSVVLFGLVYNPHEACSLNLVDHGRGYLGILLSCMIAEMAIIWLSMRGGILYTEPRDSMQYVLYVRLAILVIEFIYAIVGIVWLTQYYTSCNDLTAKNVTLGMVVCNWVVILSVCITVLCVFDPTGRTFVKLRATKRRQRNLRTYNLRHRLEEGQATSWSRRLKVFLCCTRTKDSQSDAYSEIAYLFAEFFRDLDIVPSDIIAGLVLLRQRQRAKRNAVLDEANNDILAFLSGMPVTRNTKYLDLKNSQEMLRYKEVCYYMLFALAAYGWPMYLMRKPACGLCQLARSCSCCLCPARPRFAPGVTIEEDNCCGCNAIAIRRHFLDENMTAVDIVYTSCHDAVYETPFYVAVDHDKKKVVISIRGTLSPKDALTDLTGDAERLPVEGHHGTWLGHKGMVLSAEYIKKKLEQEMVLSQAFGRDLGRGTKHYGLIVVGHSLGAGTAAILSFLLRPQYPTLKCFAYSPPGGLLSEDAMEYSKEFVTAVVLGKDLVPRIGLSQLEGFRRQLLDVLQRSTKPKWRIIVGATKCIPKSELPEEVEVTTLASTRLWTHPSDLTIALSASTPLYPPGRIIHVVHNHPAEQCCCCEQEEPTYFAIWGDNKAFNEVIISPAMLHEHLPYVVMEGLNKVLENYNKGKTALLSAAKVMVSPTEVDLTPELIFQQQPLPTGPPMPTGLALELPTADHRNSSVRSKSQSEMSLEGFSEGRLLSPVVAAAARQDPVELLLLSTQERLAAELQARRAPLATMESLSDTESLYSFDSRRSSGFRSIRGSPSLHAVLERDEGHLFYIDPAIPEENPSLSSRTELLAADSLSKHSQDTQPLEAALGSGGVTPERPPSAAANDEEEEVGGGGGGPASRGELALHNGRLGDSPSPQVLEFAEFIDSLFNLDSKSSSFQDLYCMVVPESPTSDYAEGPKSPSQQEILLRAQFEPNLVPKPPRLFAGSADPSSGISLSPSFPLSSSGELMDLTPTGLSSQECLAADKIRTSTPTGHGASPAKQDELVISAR
Test: Inhibition of human DAGLalpha expressed in HEK293T cell membrane fractions using PNP butyrate as substrate preincubated for 20 mins followed by substrate addition by colorimetric surrogate substrate assay

SMILES: O=C(CCCCCc1ccccc1)c1nc2ncccc2o1 [1-(oxazolo[4,5-b]pyridin-2-yl)-6-phenylhexan-1-one]
- IC50: 40 nM
